Legend:
[1] = apparent partition coefficient between octanol and water; type: physicochemical; settings: buffered at pH 7.2
[2] = solubility in aqueous solutions and organic solvents; type: physicochemical
[3] = cited from earlier work
[4] = stability in the solid state; type: physicochemical; settings: stored at ambient conditions
[5] = pH of a saturated solution in deionized water; type: physicochemical

SMILES: O=S1(=O)CCN(CN2CCS(=O)(=O)NC2)CN1 [taurolidine, 4,4′-methylenebis(tetrahydro-1,2,4-thiadiazine)-1,1,1′,1′,-tetraoxide]
- apparent partition coefficient between octanol and water [1]: approximately 0.13
- solubility ([2]; CHCl3): insoluble
- solubility ([2]; Dilute HCl): soluble
- solubility ([2]; Dilute NaOH): soluble
- solubility ([2]; EtOH): sparingly soluble
- solubility ([2]; Water, at 20° C.): 1% at 20 °C
- cumulative dose shown to be safe and well tolerated ([3]; cumulative doses, up to and exceeding): ≥ 300 g
- systemic dose shown to be safe and well tolerated ([3]; systemic doses): exceeding 40 g/day
- stability in the solid state [4]: acceptable stability
- pH of a saturated solution [5]: 7.4

— US6608051B1, “Compositions and methods for treating blood” (MedPointe Healthcare Inc., priority 1999, dated 2003)
